Consider eleven compounds from ChEMBL document CHEMBL1148617, “Design, synthesis, and structure-activity relationships of 1-,3-,8-, and 9-substituted-9-deazaxanthines at the human A2B adenosine receptor” (J Med Chem, 2006).

T1 sequence (P30543 whole entry): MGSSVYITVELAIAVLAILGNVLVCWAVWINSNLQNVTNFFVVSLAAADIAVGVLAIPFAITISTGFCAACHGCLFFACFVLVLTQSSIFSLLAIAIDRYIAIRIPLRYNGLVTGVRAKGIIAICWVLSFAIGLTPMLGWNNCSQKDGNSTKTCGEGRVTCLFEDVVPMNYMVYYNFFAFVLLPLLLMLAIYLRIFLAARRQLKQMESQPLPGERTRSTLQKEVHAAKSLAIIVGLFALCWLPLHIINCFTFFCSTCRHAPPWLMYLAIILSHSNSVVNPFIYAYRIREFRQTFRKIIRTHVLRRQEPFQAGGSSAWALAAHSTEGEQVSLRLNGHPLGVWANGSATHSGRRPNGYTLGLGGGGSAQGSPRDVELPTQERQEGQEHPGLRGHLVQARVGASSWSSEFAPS

One experiment has as its target T1, Adenosine receptor A2a (Rattus norvegicus, UniProt P30543). The experiment is described as follows: Antagonist potency against adenosine A2A receptor of Sprague-Dawley rat aortic smooth muscle. The following applies: read-out: pA2 (converted). The format is functional.
Take `Cn1c(=O)c2[nH]c(-c3ccc(OCC(=O)Nc4ccc(F)cc4)cc3)cc2n(C)c1=O`: the Kb was 51.3 nM.
Still for that read-out and setting: in the case of `Cn1c(=O)c2[nH]c(-c3ccc(OCC(=O)Nc4ccc(Br)cc4)cc3)cc2n(C)c1=O` it was 126 nM; in that of `Cn1c(=O)c2[nH]c(-c3ccc(OCC(=O)Nc4ccc(C#N)cc4)cc3)cc2n(C)c1=O`, 43.7 nM; in that of `CCCn1c(=O)c2[nH]c(-c3ccc(OCC(=O)Nc4ccc(-c5ccccc5)cc4)cc3)cc2n(C)c1=O`, 468 nM.
For the compound `COc1cc(OCC(=O)Nc2ccc(Br)cc2)ccc1-c1cc2c([nH]1)c(=O)n(C)c(=O)n2C`, the Kb was 933 nM.

Another experiment concerns the target T1, Adenosine receptor A2a. As to the kind of experiment: Binding affinity to rat adenosine A2A receptor.
Details: not given
Take `CCCn1c(=O)c2[nH]c(-c3ccc(OCC(=O)O)cc3)nc2n(CCC)c1=O`: the Ki (as a rule, the equilibrium dissociation constant of an inhibitor or competing ligand from its target) was 2240 nM.
On the same count and under the same terms, next, `CCCn1c(=O)c2nc(-c3ccc(OCC(=O)Nc4ccc(C)cc4)cc3)[nH]c2n(CCC)c1=O`: 129 nM.

The target in another experiment is T2, Adenosine receptor A3 (Homo sapiens) (UniProt P0DMS8).
T2 sequence (whole entry): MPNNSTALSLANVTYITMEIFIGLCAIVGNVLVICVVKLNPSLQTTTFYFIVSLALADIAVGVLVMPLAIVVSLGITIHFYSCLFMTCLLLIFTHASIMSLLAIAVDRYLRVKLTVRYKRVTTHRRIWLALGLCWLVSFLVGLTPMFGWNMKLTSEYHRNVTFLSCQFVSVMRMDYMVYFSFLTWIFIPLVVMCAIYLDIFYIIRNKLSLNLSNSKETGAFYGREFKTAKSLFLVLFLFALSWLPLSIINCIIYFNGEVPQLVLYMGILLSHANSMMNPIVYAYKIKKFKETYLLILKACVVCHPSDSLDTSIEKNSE
The experiment is described as follows: Displacement of [3H]NECA from recombinant human adenosine A3 receptor expressed in HeLa cells at 1uM. Type of experiment: cell-based.
Details: not given
On the technique in general: In a radioligand displacement assay an active substance lowers the binding of a labelled ligand.
On to `Cn1c(=O)c2[nH]c(-c3ccc(OCC(=O)Nc4ccc(F)cc4)cc3)cc2n(C)c1=O`, for which the inhibition (commonly how much of the control response was suppressed) came out at 20%.
The same measure, in the same setting: next, `Cn1c(=O)c2[nH]c(-c3ccc(OCC(=O)Nc4ccc(Br)cc4)cc3)cc2n(C)c1=O`: 8%.

In another experiment the target is T3, Adenosine receptor A2a (Homo sapiens, UniProt P29274).
T3 sequence (P29274 whole entry): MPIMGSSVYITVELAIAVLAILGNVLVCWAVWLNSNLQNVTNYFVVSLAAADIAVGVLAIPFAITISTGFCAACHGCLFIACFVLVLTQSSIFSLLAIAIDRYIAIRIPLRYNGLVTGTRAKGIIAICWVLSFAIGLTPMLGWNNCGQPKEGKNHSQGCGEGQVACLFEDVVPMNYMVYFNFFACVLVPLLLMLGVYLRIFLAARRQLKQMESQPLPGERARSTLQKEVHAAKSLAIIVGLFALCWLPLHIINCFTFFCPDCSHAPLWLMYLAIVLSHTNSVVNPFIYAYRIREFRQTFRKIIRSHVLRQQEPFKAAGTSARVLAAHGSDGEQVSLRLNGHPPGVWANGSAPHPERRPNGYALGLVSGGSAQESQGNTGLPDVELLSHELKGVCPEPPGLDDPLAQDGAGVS
Test: not given
Details: not given
Take `CCCn1c(=O)c2[nH]c(-c3ccc(OCC(=O)NCc4ccccc4)cc3)nc2n(CCC)c1=O`: the Ki was 20 nM.
Same read-out and setting: in the case of `CCCn1c(=O)c2[nH]c(-c3ccc(OCC(=O)Nc4ccccc4)cc3)nc2n(CCC)c1=O` it was 2.24 nM; in that of `CC(Oc1ccc(-c2cc3c([nH]2)c(=O)n(C)c(=O)n3C)cc1)C(=O)Nc1ccccc1` (configuration not stated), 47.9 nM.
Same read-out and setting: next, `CCCn1c(=O)c2[nH]c(-c3ccc(OCC(=O)NCc4ccncc4)cc3)cc2n(CCC)c1=O`: 302 nM.

For another experiment, the target named is T3, Adenosine receptor A2a. The experiment is described as follows: Displacement of [3H]ZM-241385 from recombinant human adenosine A2A receptor expressed in HeLa cells at 0.1 uM.
Details: not given
With `Cn1c(=O)c2[nH]c(-c3ccc(OCC(=O)Nc4ccc(F)cc4)cc3)cc2n(C)c1=O`, the inhibition is 41%.
With `Cn1c(=O)c2[nH]c(-c3ccc(OCC(=O)Nc4ccc(Br)cc4)cc3)cc2n(C)c1=O`, the inhibition turned out to be 12%.
The same measure, in the same setting: next, `CC(Oc1ccc(-c2cc3c([nH]2)c(=O)n(C)c(=O)n3C)cc1)C(=O)Nc1ccccc1` (configuration not stated): 60%.
For `Cn1c(=O)c2[nH]c(-c3ccc(OCC(=O)Nc4ccc(C#N)cc4)cc3)cc2n(C)c1=O`, the inhibition amounted to 47%.
On the same count and under the same terms, in the case of `CCCn1c(=O)c2[nH]c(-c3ccc(OCC(=O)Nc4ccc(-c5ccccc5)cc4)cc3)cc2n(C)c1=O` it was 15%.
Still for that read-out and setting: in the case of `COc1cc(OCC(=O)Nc2ccc(Br)cc2)ccc1-c1cc2c([nH]1)c(=O)n(C)c(=O)n2C` it was 20%; in that of `CCCn1c(=O)c2[nH]c(-c3ccc(OCC(=O)NCc4ccncc4)cc3)cc2n(CCC)c1=O`, 18%.

The target in a further experiment is T4, Adenosine receptor A2b (Homo sapiens, UniProt P29275).
T4 sequence (P29275 whole entry): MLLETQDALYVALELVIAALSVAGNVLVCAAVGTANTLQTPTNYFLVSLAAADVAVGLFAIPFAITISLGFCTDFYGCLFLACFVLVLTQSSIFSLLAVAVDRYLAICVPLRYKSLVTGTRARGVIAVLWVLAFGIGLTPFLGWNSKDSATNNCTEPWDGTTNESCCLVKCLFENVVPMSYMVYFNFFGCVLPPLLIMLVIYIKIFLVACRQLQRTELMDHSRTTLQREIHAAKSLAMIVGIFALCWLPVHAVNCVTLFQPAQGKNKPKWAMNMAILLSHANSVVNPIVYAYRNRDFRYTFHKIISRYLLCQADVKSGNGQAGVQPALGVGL
Test: not given
Details: not given
`CCCn1c(=O)c2[nH]c(-c3ccc(OCC(=O)Nc4ccccc4)cc3)nc2n(CCC)c1=O`: the Ki is 1.51 nM.
On the same count and under the same terms, in the case of `CCCn1c(=O)c2nc(-c3ccc(OCC(=O)Nc4ccc(C)cc4)cc3)[nH]c2n(CCC)c1=O` it was 1.91 nM; in that of `CC(Oc1ccc(-c2cc3c([nH]2)c(=O)n(C)c(=O)n3C)cc1)C(=O)Nc1ccccc1` (configuration not stated), 4.79 nM; in that of `CCCn1c(=O)c2[nH]c(-c3ccc(OCC(=O)NCc4ccncc4)cc3)cc2n(CCC)c1=O`, 28.2 nM.

The target in a further experiment is T5, Adenosine receptor A2b (Homo sapiens) (UniProt P29275).
T5 sequence (whole entry): T4 sequence (P29275 whole entry)
As to the kind of experiment: Displacement of [3H]DPCPX from recombinant human adenosine A2B receptor expressed in HEK293 cells at 0.1 uM. The format is cell-based.
Details: not given
Regarding `Cn1c(=O)c2[nH]c(-c3ccc(OCC(=O)Nc4ccc(F)cc4)cc3)cc2n(C)c1=O`, the inhibition stood at 100%.
Same read-out and setting: in the case of `Cn1c(=O)c2[nH]c(-c3ccc(OCC(=O)Nc4ccc(Br)cc4)cc3)cc2n(C)c1=O` it was 90%; in that of `CC(Oc1ccc(-c2cc3c([nH]2)c(=O)n(C)c(=O)n3C)cc1)C(=O)Nc1ccccc1` (configuration not stated), 99%.
For `Cn1c(=O)c2[nH]c(-c3ccc(OCC(=O)Nc4ccc(C#N)cc4)cc3)cc2n(C)c1=O`, the inhibition is 91%.
On the same count and under the same terms, in the case of `CCCn1c(=O)c2[nH]c(-c3ccc(OCC(=O)Nc4ccc(-c5ccccc5)cc4)cc3)cc2n(C)c1=O` it was 93%.
On the same count and under the same terms, in the case of `COc1cc(OCC(=O)Nc2ccc(Br)cc2)ccc1-c1cc2c([nH]1)c(=O)n(C)c(=O)n2C` it was 83%; in that of `CCCn1c(=O)c2[nH]c(-c3ccc(OCC(=O)NCc4ccncc4)cc3)cc2n(CCC)c1=O`, 76%.

The next experiment addresses T5, Adenosine receptor A2b (Homo sapiens). As to the kind of experiment: Displacement of [3H]DPCPX from recombinant human adenosine A2B receptor expressed in HEK293 cells at 0.01 uM.
Details: not given
In the case of `Cn1c(=O)c2[nH]c(-c3ccc(OCC(=O)Nc4ccc(F)cc4)cc3)cc2n(C)c1=O`, the inhibition was 72%.
Same read-out and setting: next, `Cn1c(=O)c2[nH]c(-c3ccc(OCC(=O)Nc4ccc(Br)cc4)cc3)cc2n(C)c1=O`: 84%; `CC(Oc1ccc(-c2cc3c([nH]2)c(=O)n(C)c(=O)n3C)cc1)C(=O)Nc1ccccc1` (configuration not stated): 73%; `Cn1c(=O)c2[nH]c(-c3ccc(OCC(=O)Nc4ccc(C#N)cc4)cc3)cc2n(C)c1=O`: 60%.
On the same count and under the same terms, next, `CCCn1c(=O)c2[nH]c(-c3ccc(OCC(=O)Nc4ccc(-c5ccccc5)cc4)cc3)cc2n(C)c1=O`: 39%; `COc1cc(OCC(=O)Nc2ccc(Br)cc2)ccc1-c1cc2c([nH]1)c(=O)n(C)c(=O)n2C`: 60%.
In the case of `CCCn1c(=O)c2[nH]c(-c3ccc(OCC(=O)NCc4ccncc4)cc3)cc2n(CCC)c1=O`, the inhibition was determined as 21%.

Another experiment concerns the target T6, Adenosine receptor A1 (Rattus norvegicus, UniProt P25099).
T6 sequence (P25099 whole entry): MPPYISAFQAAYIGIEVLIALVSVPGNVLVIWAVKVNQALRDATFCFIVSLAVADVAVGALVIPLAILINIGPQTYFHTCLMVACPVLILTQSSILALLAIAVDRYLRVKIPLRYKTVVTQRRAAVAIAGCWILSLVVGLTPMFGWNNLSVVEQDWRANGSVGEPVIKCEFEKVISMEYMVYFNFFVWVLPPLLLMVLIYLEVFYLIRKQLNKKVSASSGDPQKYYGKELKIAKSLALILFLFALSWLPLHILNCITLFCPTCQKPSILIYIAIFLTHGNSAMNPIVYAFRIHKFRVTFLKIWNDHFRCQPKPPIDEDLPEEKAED
As to the kind of experiment: Binding affinity to rat adenosine A1 receptor.
Details: not given
For `CCCn1c(=O)c2[nH]c(-c3ccc(OCC(=O)O)cc3)nc2n(CCC)c1=O`, the Ki is 63.1 nM.

The next experiment concerns the target T7, Adenosine receptor A3 (Homo sapiens, UniProt P0DMS8).
T7 sequence (P0DMS8 whole entry): T2 sequence (whole entry)
Test: not given
Details: not given
Turning to `CCCn1c(=O)c2[nH]c(-c3ccc(OCC(=O)O)cc3)nc2n(CCC)c1=O`, affinity was put at a Ki of 3980 nM.
Still for that read-out and setting: next, `CCCn1c(=O)c2[nH]c(-c3ccc(OCC(=O)NCc4ccccc4)cc3)nc2n(CCC)c1=O`: 141 nM; `CC(Oc1ccc(-c2cc3c([nH]2)c(=O)n(C)c(=O)n3C)cc1)C(=O)Nc1ccccc1` (configuration not stated): 912 nM.
Still for that read-out and setting: in the case of `CCCn1c(=O)c2[nH]c(-c3ccc(OCC(=O)Nc4ccc(-c5ccccc5)cc4)cc3)cc2n(C)c1=O` it was 12300 nM; in that of `COc1cc(OCC(=O)Nc2ccc(Br)cc2)ccc1-c1cc2c([nH]1)c(=O)n(C)c(=O)n2C`, 10700 nM.

In a further experiment the target is T8, Adenosine receptor A1 (Homo sapiens, UniProt P30542).
T8 sequence (P30542 whole entry): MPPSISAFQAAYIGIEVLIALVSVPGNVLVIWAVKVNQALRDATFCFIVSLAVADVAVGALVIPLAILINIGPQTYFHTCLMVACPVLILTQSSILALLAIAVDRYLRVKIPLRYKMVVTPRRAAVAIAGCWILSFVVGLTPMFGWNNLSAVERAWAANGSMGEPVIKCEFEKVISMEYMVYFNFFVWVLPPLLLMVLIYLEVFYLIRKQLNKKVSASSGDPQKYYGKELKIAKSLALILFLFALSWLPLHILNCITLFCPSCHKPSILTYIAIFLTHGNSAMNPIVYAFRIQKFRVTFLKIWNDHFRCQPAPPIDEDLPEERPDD
Test: not given
Details: not given
For `Cn1c(=O)c2[nH]c(-c3ccc(OCC(=O)Nc4ccc(F)cc4)cc3)cc2n(C)c1=O`, the Ki was 14.8 nM.
Still for that read-out and setting: next, `CCCn1c(=O)c2[nH]c(-c3ccc(OCC(=O)NCc4ccccc4)cc3)nc2n(CCC)c1=O`: 63.1 nM.
Regarding `CCCn1c(=O)c2[nH]c(-c3ccc(OCC(=O)Nc4ccccc4)cc3)nc2n(CCC)c1=O`, the Ki is 40.7 nM.
In turn, `Cn1c(=O)c2[nH]c(-c3ccc(OCC(=O)Nc4ccc(Br)cc4)cc3)cc2n(C)c1=O` showed a Ki of 18.2 nM.
The same measure, in the same setting: next, `CC(Oc1ccc(-c2cc3c([nH]2)c(=O)n(C)c(=O)n3C)cc1)C(=O)Nc1ccccc1` (configuration not stated): 7.76 nM; `Cn1c(=O)c2[nH]c(-c3ccc(OCC(=O)Nc4ccc(C#N)cc4)cc3)cc2n(C)c1=O`: 4.27 nM; `CCCn1c(=O)c2[nH]c(-c3ccc(OCC(=O)Nc4ccc(-c5ccccc5)cc4)cc3)cc2n(C)c1=O`: 11 nM.
`COc1cc(OCC(=O)Nc2ccc(Br)cc2)ccc1-c1cc2c([nH]1)c(=O)n(C)c(=O)n2C` showed a Ki of 32.4 nM.
